Measurements reported in patent publication US20260078103A1, “ISOQUINOLONES AS PI3K INHIBITORS” (OnKure, Inc., priority 2022, published 2026).

What follows are compounds tested on T47D cells expressing mutant PI3Ka (H1047R) (assay: In vitro cell proliferation, T47D cells (CellTiter-Glo)). Details: Homo sapiens, T47D, 72 h, inhibition of proliferation, read-out: Avg T-47D EC50.
Type: cell-based
Summary of the method: (§1)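 1,500 cells/well seeded onto pre-stamped 10-pt dilution plates; T47D in RPMI + 10% FBS + insulin 0.2 units/mL, SKBR3 in McCoys 5a + 10% FBS. 72 h, 37 °C, 5% CO2. CTG readout. 0% = 0.1% DMSO, 100% = 10 uM Alpelisib; sigmoidal fit gives EC50.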

Structure (SMILES)	EC50
Cc1cc([C@@H](C)Nc2ccccc2C(=O)O)c2cc(N3CCN(c4cccnc4C)CC3)n(C)c(=O)c2c1 [Example 206]	1 to 500 nM
Cc1cc([C@@H](C)Nc2ccccc2C(=O)O)c2cc(N3CC4CC(C3)N4CC(F)(F)F)n(C)c(=O)c2c1 [Example 207]	1 to 500 nM
Cc1cc([C@@H](C)Nc2ccccc2C(=O)O)c2cc(-c3ccc(OCC4CC4)nc3)n(C)c(=O)c2c1 [Example 208]	1 to 500 nM
Cc1cc([C@@H](C)Nc2ccccc2C(=O)O)c2cc(-c3ccc(C)nc3C)n(C)c(=O)c2c1 [Example 209]	500 to 2000 nM
Cc1cc([C@@H](C)Nc2ccccc2C(=O)O)c2cc(-c3cnc(C)c(C)c3)n(C)c(=O)c2c1 [Example 210]	500 to 2000 nM
Cc1cc([C@@H](C)Nc2ccccc2C(=O)O)c2cc(-c3cnn(C4CC4)c3)n(C)c(=O)c2c1 [Example 212]	500 to 2000 nM
Cc1cc([C@@H](C)Nc2ccccc2C(=O)O)c2cc(N3CCN(Cc4ccnc(C)n4)CC3)n(C)c(=O)c2c1 [Example 214]	1 to 500 nM
Cc1cc([C@@H](C)Nc2ccccc2C(=O)O)c2cc(-c3ccc(OC4CC4)nc3)n(C)c(=O)c2c1 [Example 216]	1 to 500 nM
COc1ccc(N2CCN(c3cc4c([C@@H](C)Nc5ccccc5C(=O)O)cc(C)cc4c(=O)n3C)CC2)cn1 [Example 218]	1 to 500 nM

Same assay, conditions: inhibition of proliferation, 72 hours, read-out: Avg T-47D EC50

Structure (SMILES)	EC50
Cc1cc(C(C)Nc2ccccc2C(=O)O)c2cc(N3CC4C(C3)C4C(F)(F)F)n(C)c(=O)c2c1 (stereo not shown) [Example 191]	500 to 2000 nM
Cc1cc([C@@H](C)Nc2ccccc2C(=O)O)c2cc(-c3ccc(Oc4ccc(F)cc4)nc3)n(C)c(=O)c2c1 [Example 194]	500 to 2000 nM
Cc1cc([C@@H](C)Nc2ccccc2C(=O)O)c2cc(N3CC4(CCCN(CC(F)(F)F)C4)C3)n(C)c(=O)c2c1 [Example 195]	500 to 2000 nM
Cc1cc([C@@H](C)Nc2ccccc2C(=O)O)c2cc(N3CCN(c4cccc(C)n4)CC3)n(C)c(=O)c2c1 [Example 196]	1 to 500 nM
Cc1cc([C@@H](C)Nc2ccccc2C(=O)O)c2cc(-c3ccc(O[C@H]4C[C@@H](F)C4)nc3)n(C)c(=O)c2c1 [Example 202]	1 to 500 nM
Cc1cc(C(C)Nc2ccccc2C(=O)O)c2cc(-c3ccc(OC4CC(F)C4)nc3)n(C)c(=O)c2c1 (stereo not shown) [Example 217]	1 to 500 nM
Cc1cc([C@@H](C)Nc2ccccc2C(=O)O)c2cc(N3CCC4(CC3)CN(CC(F)(F)F)C4)n(C)c(=O)c2c1 [Example 219]	1 to 500 nM

Each compound was assayed on SKBR3 cells express WT PI3Ka (assay: In vitro cell proliferation, SKBR3 cells (CellTiter-Glo)). Details: Homo sapiens, SK-BR-3, 72 h, inhibition of proliferation.
Type: cell-based
Summary of the method: as §1

Structure (SMILES)	EC50
Cc1cc([C@@H](C)Nc2ccccc2C(=O)O)c2cc(N3CCN(c4cccnc4C)CC3)n(C)c(=O)c2c1 [Example 206]	2000 to 15000 nM
Cc1cc([C@@H](C)Nc2ccccc2C(=O)O)c2cc(N3CC4CC(C3)N4CC(F)(F)F)n(C)c(=O)c2c1 [Example 207]	> 15000 nM
Cc1cc([C@@H](C)Nc2ccccc2C(=O)O)c2cc(-c3ccc(OCC4CC4)nc3)n(C)c(=O)c2c1 [Example 208]	> 15000 nM
Cc1cc([C@@H](C)Nc2ccccc2C(=O)O)c2cc(-c3ccc(C)nc3C)n(C)c(=O)c2c1 [Example 209]	> 15000 nM
Cc1cc([C@@H](C)Nc2ccccc2C(=O)O)c2cc(-c3cnc(C)c(C)c3)n(C)c(=O)c2c1 [Example 210]	> 15000 nM
Cc1cc([C@@H](C)Nc2ccccc2C(=O)O)c2cc(-c3cnn(C4CC4)c3)n(C)c(=O)c2c1 [Example 212]	> 15000 nM
Cc1cc([C@@H](C)Nc2ccccc2C(=O)O)c2cc(N3CCN(Cc4ccnc(C)n4)CC3)n(C)c(=O)c2c1 [Example 214]	> 15000 nM
Cc1cc([C@@H](C)Nc2ccccc2C(=O)O)c2cc(-c3ccc(OC4CC4)nc3)n(C)c(=O)c2c1 [Example 216]	> 15000 nM
COc1ccc(N2CCN(c3cc4c([C@@H](C)Nc5ccccc5C(=O)O)cc(C)cc4c(=O)n3C)CC2)cn1 [Example 218]	2000 to 15000 nM

Same assay, conditions: inhibition of proliferation, 72 hours

Structure (SMILES)	EC50
Cc1cc(C(C)Nc2ccccc2C(=O)O)c2cc(N3CC4C(C3)C4C(F)(F)F)n(C)c(=O)c2c1 (stereo not shown) [Example 191]	> 15000 nM
Cc1cc([C@@H](C)Nc2ccccc2C(=O)O)c2cc(-c3ccc(Oc4ccc(F)cc4)nc3)n(C)c(=O)c2c1 [Example 194]	> 15000 nM
Cc1cc([C@@H](C)Nc2ccccc2C(=O)O)c2cc(N3CC4(CCCN(CC(F)(F)F)C4)C3)n(C)c(=O)c2c1 [Example 195]	> 15000 nM
Cc1cc([C@@H](C)Nc2ccccc2C(=O)O)c2cc(N3CCN(c4cccc(C)n4)CC3)n(C)c(=O)c2c1 [Example 196]	> 15000 nM
Cc1cc([C@@H](C)Nc2ccccc2C(=O)O)c2cc(-c3ccc(O[C@H]4C[C@@H](F)C4)nc3)n(C)c(=O)c2c1 [Example 202]	> 15000 nM
Cc1cc(C(C)Nc2ccccc2C(=O)O)c2cc(-c3ccc(OC4CC(F)C4)nc3)n(C)c(=O)c2c1 (stereo not shown) [Example 217]	2000 to 15000 nM
Cc1cc([C@@H](C)Nc2ccccc2C(=O)O)c2cc(N3CCC4(CC3)CN(CC(F)(F)F)C4)n(C)c(=O)c2c1 [Example 219]	2000 to 15000 nM

Each compound was assayed on phosphorylation of AKT (pAKT) in T47D cells expressing mutant PI3Ka (H1047R) (assay: In vitro cell pAKT (Ser473) HTRF, T47D cells). Details: Homo sapiens, T47D, 6 h, cellular pAKT, T47D cells, mutant PI3Ka (H1047R), 6 hours; read-out: Avg T-47D IC50.
Type: cell-based
Summary of the method: (§2)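 pAKT (Ser473) was quantified by HTRF in lysates from cells exposed 6 h at 37 °C to 10-point compound series, with T47D in insulin-supplemented RPMI/10% FBS and SKBR3 in McCoy's 5a/10% FBS. Controls: 0.1% DMSO (high) and 10 uM alpelisib (low). IC50 from sigmoidal curve fitting.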

Structure (SMILES)	IC50
Cc1cc([C@@H](C)Nc2ccccc2C(=O)O)c2cc(N3CCN(c4cccnc4C)CC3)n(C)c(=O)c2c1 [Example 206]	1 to 500 nM
Cc1cc([C@@H](C)Nc2ccccc2C(=O)O)c2cc(N3CC4CC(C3)N4CC(F)(F)F)n(C)c(=O)c2c1 [Example 207]	1 to 500 nM
Cc1cc([C@@H](C)Nc2ccccc2C(=O)O)c2cc(-c3ccc(OCC4CC4)nc3)n(C)c(=O)c2c1 [Example 208]	1 to 500 nM
Cc1cc([C@@H](C)Nc2ccccc2C(=O)O)c2cc(-c3ccc(C)nc3C)n(C)c(=O)c2c1 [Example 209]	1 to 500 nM
Cc1cc([C@@H](C)Nc2ccccc2C(=O)O)c2cc(-c3cnc(C)c(C)c3)n(C)c(=O)c2c1 [Example 210]	1 to 500 nM
Cc1cc([C@@H](C)Nc2ccccc2C(=O)O)c2cc(-c3cnn(C4CC4)c3)n(C)c(=O)c2c1 [Example 212]	500 to 2000 nM
Cc1cc([C@@H](C)Nc2ccccc2C(=O)O)c2cc(N3CCN(Cc4ccnc(C)n4)CC3)n(C)c(=O)c2c1 [Example 214]	1 to 500 nM
Cc1cc([C@@H](C)Nc2ccccc2C(=O)O)c2cc(-c3ccc(OC4CC4)nc3)n(C)c(=O)c2c1 [Example 216]	1 to 500 nM
COc1ccc(N2CCN(c3cc4c([C@@H](C)Nc5ccccc5C(=O)O)cc(C)cc4c(=O)n3C)CC2)cn1 [Example 218]	1 to 500 nM

Same assay, conditions: cellular pAKT, T47D cells, mutant PI3Ka (H1047R), 6 hours; read-out: Avg T-47D IC50

Structure (SMILES)	IC50
Cc1cc(C(C)Nc2ccccc2C(=O)O)c2cc(N3CC4C(C3)C4C(F)(F)F)n(C)c(=O)c2c1 (stereo not shown) [Example 191]	1 to 500 nM
Cc1cc([C@@H](C)Nc2ccccc2C(=O)O)c2cc(-c3ccc(Oc4ccc(F)cc4)nc3)n(C)c(=O)c2c1 [Example 194]	1 to 500 nM
Cc1cc([C@@H](C)Nc2ccccc2C(=O)O)c2cc(N3CC4(CCCN(CC(F)(F)F)C4)C3)n(C)c(=O)c2c1 [Example 195]	1 to 500 nM
Cc1cc([C@@H](C)Nc2ccccc2C(=O)O)c2cc(N3CCN(c4cccc(C)n4)CC3)n(C)c(=O)c2c1 [Example 196]	1 to 500 nM
Cc1cc([C@@H](C)Nc2ccccc2C(=O)O)c2cc(-c3ccc(O[C@H]4C[C@@H](F)C4)nc3)n(C)c(=O)c2c1 [Example 202]	1 to 500 nM
Cc1cc(C(C)Nc2ccccc2C(=O)O)c2cc(-c3ccc(OC4CC(F)C4)nc3)n(C)c(=O)c2c1 (stereo not shown) [Example 217]	1 to 500 nM
Cc1cc([C@@H](C)Nc2ccccc2C(=O)O)c2cc(N3CCC4(CC3)CN(CC(F)(F)F)C4)n(C)c(=O)c2c1 [Example 219]	1 to 500 nM

The compounds below were run on phosphorylation of AKT (pAKT) in SKBR3 cells express WT PI3Ka (assay: In vitro cell pAKT (Ser473) HTRF, SKBR3 cells). Details: Homo sapiens, SK-BR-3, 6 h, cellular pAKT.
Type: cell-based
Summary of the method: as §2

Structure (SMILES)	IC50
Cc1cc([C@@H](C)Nc2ccccc2C(=O)O)c2cc(N3CCN(c4cccnc4C)CC3)n(C)c(=O)c2c1 [Example 206]	500 to 2000 nM
Cc1cc([C@@H](C)Nc2ccccc2C(=O)O)c2cc(N3CC4CC(C3)N4CC(F)(F)F)n(C)c(=O)c2c1 [Example 207]	> 15000 nM
Cc1cc([C@@H](C)Nc2ccccc2C(=O)O)c2cc(-c3ccc(OCC4CC4)nc3)n(C)c(=O)c2c1 [Example 208]	> 15000 nM
Cc1cc([C@@H](C)Nc2ccccc2C(=O)O)c2cc(-c3ccc(C)nc3C)n(C)c(=O)c2c1 [Example 209]	> 15000 nM
Cc1cc([C@@H](C)Nc2ccccc2C(=O)O)c2cc(-c3cnc(C)c(C)c3)n(C)c(=O)c2c1 [Example 210]	> 15000 nM
Cc1cc([C@@H](C)Nc2ccccc2C(=O)O)c2cc(-c3cnn(C4CC4)c3)n(C)c(=O)c2c1 [Example 212]	> 15000 nM
Cc1cc([C@@H](C)Nc2ccccc2C(=O)O)c2cc(N3CCN(Cc4ccnc(C)n4)CC3)n(C)c(=O)c2c1 [Example 214]	> 15000 nM
Cc1cc([C@@H](C)Nc2ccccc2C(=O)O)c2cc(-c3ccc(OC4CC4)nc3)n(C)c(=O)c2c1 [Example 216]	> 15000 nM
COc1ccc(N2CCN(c3cc4c([C@@H](C)Nc5ccccc5C(=O)O)cc(C)cc4c(=O)n3C)CC2)cn1 [Example 218]	2000 to 15000 nM

Same assay, conditions: cellular pAKT, 6 hours

Structure (SMILES)	IC50
Cc1cc(C(C)Nc2ccccc2C(=O)O)c2cc(N3CC4C(C3)C4C(F)(F)F)n(C)c(=O)c2c1 (stereo not shown) [Example 191]	> 15000 nM
Cc1cc([C@@H](C)Nc2ccccc2C(=O)O)c2cc(-c3ccc(Oc4ccc(F)cc4)nc3)n(C)c(=O)c2c1 [Example 194]	> 15000 nM
Cc1cc([C@@H](C)Nc2ccccc2C(=O)O)c2cc(N3CC4(CCCN(CC(F)(F)F)C4)C3)n(C)c(=O)c2c1 [Example 195]	> 15000 nM
Cc1cc([C@@H](C)Nc2ccccc2C(=O)O)c2cc(N3CCN(c4cccc(C)n4)CC3)n(C)c(=O)c2c1 [Example 196]	2000 to 15000 nM
Cc1cc([C@@H](C)Nc2ccccc2C(=O)O)c2cc(-c3ccc(O[C@H]4C[C@@H](F)C4)nc3)n(C)c(=O)c2c1 [Example 202]	> 15000 nM
Cc1cc(C(C)Nc2ccccc2C(=O)O)c2cc(-c3ccc(OC4CC(F)C4)nc3)n(C)c(=O)c2c1 (stereo not shown) [Example 217]	> 15000 nM
Cc1cc([C@@H](C)Nc2ccccc2C(=O)O)c2cc(N3CCC4(CC3)CN(CC(F)(F)F)C4)n(C)c(=O)c2c1 [Example 219]	2000 to 15000 nM
